Key:
[1] = system: purified recombinant COX-1; assay: COX-1 enzyme based assay; type: biochemical
Procedure: COX-1 and COX-2 enzyme based assays were carried out to check the inhibitory potential of the test compounds on the production of prostaglandin by purified recombinant COX-1/COX-2 enzyme (Proc. Nat. Acad. Sci. USA, 88, 2692-2696, 1991; J. Clin. Immunoassay 15, 116-120, 1992). In this assay, the potential of the test compound to inhibit the production of prostaglandin either by COX-1 or COX-2 from arachidonic acid (substrate) was measured. This was an enzyme based in-vitro assay to evaluate selective COX inhibition with good reproducibility.
Arachidonic acid was converted to PGH2 (Intermediate product) by COX1/COX-2 in the presence or absence of the test compound. The reaction was carried out at 37° C. and after 2 minutes it was stopped by adding 1M HCl. Intermediate product PGH2 was converted to a stable prostanoid product PGF2α by SnCl2 reduction. The amount of PGF2α produced in the reaction was inversely proportional to the COX inhibitory potential of the test compound. The prostanoid product was quantified via enzyme immunoassay (EIA) using a broadly specific antibody that binds to all the major forms of prostaglandin, using Cayman ELISA kit as per the procedure outlined by the manufacturer (Cayman Chemicals, Ann Arbor, USA).

[2] = system: IL-6; assay: In vitro measurement of Interleukin-6 in human PBMC; type: cell-based; conditions: Table XVa summary
Procedure: In Vitro Measurement of Interleukin-6 (IL-6)
This assay determines the effect of test compounds on the production of IL-6 in human PBMC (Physiol. Res. 52, 593-598, 2003). Compounds were tested for their ability to inhibit the activity of IL-6 in human PBMC. PBMC were isolated from blood using BD Vacutainer CPT™ Cell preparation tube (BD Bio Science) and suspended in RPMI medium. The test compounds were pre-incubated with PBMC (0.5 million/incubation well) for 15 minutes at 37° C. and then stimulated with Lipopolysaccharide (Escherichia coli: B4; 1 μg/ml) for 18 hours at 37° C. in 5% CO2. The levels of IL-6 in cell culture medium were estimated using enzyme-linked immunosorbent assay performed in a 96 well format as per the procedure of the manufacturer (Cayman Chemical, Ann Arbor, USA).

[3] = system: TPA induced dermatitis; assay: Psoriasis model, TPA induced dermatitis; type: in vivo; conditions: mice, topical on the ears
Procedure: Inhibitory Activity in Psoriasis Model TPA induced dermatitis in mice was performed using the protocol described in Eur J Pharmacol 507, 253-259, 2005. Balb/c mice were acclimatized to laboratory conditions 5-7 days prior to the start of the experiment. They were randomly distributed to various groups based on body weight. The baseline ear thickness of the animal's both ears using thickness gauge was measured. For each animal 20 μl of that contains 2.5 μg of TPA was applied with help of micropipettor with disposable tips. Test compound was applied topically to both inner and outer surface of the both the ears i.e. left and right ear with acetone as control after 30 minutes 6 hours and 24 hours after application of TPA (20 μl). Ear thickness was measured after 6 and 24 hours in animals, while for ear weight ears were excised under anesthesia and weighed.

[4] = system: DSS Induced colitis; assay: IBD-DSS model (DSS induced colitis); type: in vivo, mice; conditions: Table XVb summary
Procedure: Inhibitory Activity in IBD-DSS Model
DSS Induced colitis test was performed as described by Axelsson et al., 1998. Male Balb/c mice were selected in the age of 7-8 weeks for the study. Colitis in mice was induced by providing DSS (2%) in the drinking water from day 1 to 6. Mice were dosed from Day 1 to 6 with test compound suspended in vehicle containing 0.25% carboxymethyl cellulose and 0.5% Tween 80. The control animals received vehicle alone. Body weight and disease activity index was recorded daily during the experiment. After 6 days of treatment, animals were sacrificed; colon weight and colon length was recorded.

[5] = system: Oxazolone induced dermatitis; assay: Psoriasis model, oxazolone induced dermatitis; type: in vivo, mice; conditions: Table XVb summary, dermatitis model not specified
Procedure: Inhibitory Activity in Psoriasis Model Oxazolone induced dermatitis in mice was performed as described in the literature. Female Balb/c were selected in the age of 6-7 weeks for the study and 20-25 g. Mice were sensitized with oxazolone (15%) from Day 1 to day 6 by applying it on the shaved abdomen. Elicitation was done with oxazolone (2%) on the ear on day 7. Test compounds were applied topically on the ear 15 minutes and 6 hours post oxazolone application on day 7. 24 hours after oxazolone application, ear thickness is measured and ear were excised under anesthesia and weighed.

Question: With `CCOC(=O)C1CCN(c2nc(C(F)(F)F)nc(-c3ccc(F)cc3)c2-c2cccc(S(N)(=O)=O)c2)CC1` [Example 59, Ethyl-1-[5-(3-aminosulfonylphenyl)-6-(4-fluorophenyl)-2-(trifluoromethyl)pyrimidin-4-yl]piperidine-4-carboxylate] as the compound, how does the “% Inhibition in rEnzyme Assay COX-1” value ([1]; 10 μM) read?
Answer: 32%

Question: And the “COX1 at 10 μm” value ([1]; Table XVa summary, 10 μm)?
Answer: 32

Question: And the “IL-6 at 10 μm” value [2]?
Answer: 37

Question: With `NS(=O)(=O)c1cccc(-c2c(-c3ccc(F)cc3)nc(C(F)(F)F)nc2-n2ccnc2)c1` [Example 80, 3-[4-(4-Fluorophenyl)-6-(1H-imidazol-1-yl)-2-(trifluoromethyl)pyrimidin-5-yl]benzenesulfonamide] as the compound, how does the “Psoriasis-acute TPA induced dermatitis % inhibition Ear Wt” value [3] read?
Answer: 18.9%

Question: And the “Psoriasis-acute TPA induced dermatitis % inhibition Ear thickness” value [3]?
Answer: 19.2%

Question: And the “IBD DAI” value [4]?
Answer: 35

Question: What about the “Psoriasis Ear thickness” value [5] of the same compound?
Answer: 19

From patent US8420653B2, “Pyrimidine compounds and their uses” (Orchid Chemicals & Pharmaceuticals Limited, priority 2008, dated 2013)
